Assay results: patent publication US11389465B2, “Phosphorylated hexaacyl disaccharides (PHADs) for treating or preventing infections” (VANDERBILT UNIVERSITY, priority 2017, dated 2022)
“Also recorded” adds a separate entry of the source.

How the values were obtained:
P. aeruginosa = conditions: head to head with MPLA, 20 μg/mouse
[1] = tested on: Gram negative and Gram positive bacterial infections; conditions: mice primed with LPS; cited from earlier work

Compound	efficacy at augmenting host resistance to bacterial infection compared with MPLA (P. aeruginosa)	resistance to infection of primed mice [1]
CCCCCCCCCCCCCC(=O)OC(CCCCCCCCCCC)CC(=O)NC1C(O)OC(COC2OC(CO)C(OP(=O)(O)O)C(OC(=O)CC(CCCCCCCCCCC)OC(=O)CCCCCCCCCCCCC)C2NC(=O)CC(CCCCCCCCCCC)OC(=O)CCCCCCCCCCCCC)C(O)C1O.N (stereo not shown) [3D(6-acyl) PHAD, 3-D (6-acyl) phosphorylated hexaacyl disaccharide]	as effective as MPLA	
CCCCCCCCCCCCCC(=O)OC(CCCCCCCCCCC)CC(=O)NC1C(OCC2OC(O)C(NC(=O)CC(O)CCCCCCCCCCC)C(O)C2O)OC(CO)C(OP(=O)(O)O)C1OC(=O)CC(CCCCCCCCCCC)OC(=O)CCCCCCCCCCCCC.N (stereo not shown) [3D-PHAD, 3-deacyl phosphorylated hexaacyl disaccharide]	as effective as MPLA; also recorded: as efficacious as MPLA	
CCCCCCCCCCCCCC(=O)OC(CCCCCCCCCCC)CC(=O)NC1C(OCC2OC(O)C(NC(=O)CC(O)CCCCCCCCCCC)C(OC(=O)CC(O)CCCCCCCCCCC)C2O)OC(CO)C(OP(=O)(O)O)C1OC(=O)CC(CCCCCCCCCCC)OC(=O)CCCCCCCCCCCCC.N (stereo not shown) [PHAD, phosphorylated hexaacyl disaccharide]	as effective as MPLA	
Lipopolysaccharide [LPS]		improved resistance to Gram negative and Gram positive bacterial infections
